From patent publication US9944647B2 (Incyte Corporation, priority 2015, dated 2018)
pIC50: −log10 of the molar value.

Biological target: LSD-1 enzyme (Homo sapiens (Human), UniProt O60341)
Assay: LANCE LSD1/KDM1A demethylase assay (LSD1 histone demethylase biochemical assay)
Settings: 1 nM LSD-1 enzyme, 1 hour preincubation at 25° C., Biotin-labeled Histone H3 peptide substrate

## CN(C)C1CCN(c2nc(-c3ccc(C#N)cc3)c(-c3ccc4scnc4c3)c3nccn23)CC1 [Example 120, 4-{8-(1,3-benzothiazol-5-yl)-5-[4-(dimethylamino)piperidin-1-yl]imidazo[1,2-c]pyrimidin-7-yl}benzonitrile]
  pIC50: ≥ 7.30

## CN(C)C1CCN(c2nc(-c3ccc(C#N)cc3)c(-c3ccc4c(c3)C(O)CC4)c3nccn23)CC1 (stereo not shown) [Example 121, 4-[5-[4-(dimethylamino)piperidin-1-yl]-8-(3-hydroxy-2,3-dihydro-1H-inden-5-yl)imidazo[1,2-c]pyrimidin-7-yl]benzonitrile]
  pIC50: ≥ 7.30

## CN(C)C1CCN(c2nc(-c3ccc(C#N)cc3)c(-c3ccc4c(c3)CC(O)C4)c3nccn23)CC1 (stereo not shown) [Example 122, 4-[5-[4-(dimethylamino)piperidin-1-yl]-8-(2-hydroxy-2,3-dihydro-1H-inden-5-yl)imidazo[1,2-c]pyrimidin-7-yl]benzonitrile]
  pIC50: ≥ 7.30

## CN1CCC[C@@H](COc2nc(-c3ccc(C#N)cc3)c(-c3ccc4c(c3)C(O)CC4)c3nccn23)C1 (stereo partly drawn) [Example 123, 4-(8-(3-hydroxy-2,3-dihydro-1H-inden-5-yl)-5-{[(3R)-1-methylpiperidin-3-yl]methoxy}imidazo[1,2-c]pyrimidin-7-yl)benzonitrile]
  pIC50: ≥ 7.30

## CN1CCC[C@@H](COc2nc(-c3ccc(C#N)cc3)c(-c3ccc4c(c3)CC(O)C4)c3nccn23)C1 (stereo partly drawn) [Example 124, 4-(8-(2-hydroxy-2,3-dihydro-1H-inden-5-yl)-5-{[(3R)-1-methylpiperidin-3-yl]methoxy}imidazo[1,2-c]pyrimidin-7-yl)benzonitrile]
  pIC50: ≥ 7.30

## CN(C)C1CCN(c2nc(-c3ccc(C#N)cc3)c(-c3cnc4c(ccn4C)c3)c3nccn23)CC1 [Example 125, 4-[5-[4-(dimethylamino)piperidin-1-yl]-8-(1-methyl-1H-pyrrolo[2,3-b]pyridin-5-yl)imidazo[1,2-c]pyrimidin-7-yl]benzonitrile]
  pIC50: ≥ 7.30

## CN(C)C1CCN(c2nc(-c3ccc(C#N)cc3)c(-c3ccc4nccnc4c3)c3nccn23)CC1 [Example 126, 4-{5-[4-(dimethylamino)piperidin-1-yl]-8-quinoxalin-6-ylimidazo[1,2-c]pyrimidin-7-yl}benzonitrile]
  pIC50: 6.30 to 7.30

## CN(C)C1CCN(c2nc(-c3ccc(C#N)cc3)c(-c3ccc4c(c3F)n(C)c(=O)n4C)c3nccn23)CC1 [Example 127, 4-[5-[4-(dimethylamino)piperidin-1-yl]-8-(4-fluoro-1,3-dimethyl-2-oxo-2,3-dihydro-1H-benzimidazol-5-yl)imidazo[1,2-c]pyrimidin-7-yl]benzonitrile]
  pIC50: ≥ 7.30

## CN(C)C1CCN(c2nc(-c3ccc(C#N)cc3)c(-c3cc(F)c4c(c3)n(C)c(=O)n4C)c3nccn23)CC1 [Example 128, 4-[5-[4-(dimethylamino)piperidin-1-yl]-8-(7-fluoro-1,3-dimethyl-2-oxo-2,3-dihydro-1H-benzimidazol-5-yl)imidazo[1,2-c]pyrimidin-7-yl]benzonitrile]
  pIC50: ≥ 7.30

## CN(C)C1CCN(c2nc(-c3ccc(C#N)cc3)c(-c3cc4c(cc3F)n(C)c(=O)n4C)c3nccn23)CC1 [Example 129, 4-[5-[4-(dimethylamino)piperidin-1-yl]-8-(6-fluoro-1,3-dimethyl-2-oxo-2,3-dihydro-1H-benzimidazol-5-yl)imidazo[1,2-c]pyrimidin-7-yl]benzonitrile]
  pIC50: ≥ 7.30

## CN1C(=O)CCc2cc(-c3c(-c4ccc(C#N)cc4)nc(N4CCC(N(C)C)CC4)n4ccnc34)ccc21 [Example 130, 4-[5-[4-(dimethylamino)piperidin-1-yl]-8-(1-methyl-2-oxo-1,2,3,4-tetrahydroquinolin-6-yl)imidazo[1,2-c]pyrimidin-7-yl]benzonitrile]
  pIC50: ≥ 7.30

## CN1C(=O)CCc2ccc(-c3c(-c4ccc(C#N)cc4)nc(N4CCC(N(C)C)CC4)n4ccnc34)cc21 [Example 131, 4-[5-[4-(dimethylamino)piperidin-1-yl]-8-(1-methyl-2-oxo-1,2,3,4-tetrahydroquinolin-7-yl)imidazo[1,2-c]pyrimidin-7-yl]benzonitrile]
  pIC50: 6.30 to 7.30

## Cc1ncc(-c2c(-c3ccc(C#N)cc3)nc(N3CCC(N(C)C)CC3)n3ccnc23)cc1C(F)F [Example 132, 4-{8-[5-(difluoromethyl)-6-methylpyridin-3-yl]-5-[4-(dimethylamino)piperidin-1-yl]imidazo[1,2-c]pyrimidin-7-yl}benzonitrile]
  pIC50: 6.30 to 7.30

## C[C@@H](O)CN1CCC[C@@H](COc2nc(-c3ccc(C#N)cc3)c(-c3ccc4c(c3)oc(=O)n4C)c3nccn23)C1 [Example 133, 4-[5-({(3R)-1-[(2R)-2-hydroxypropyl]piperidin-3-yl}methoxy)-8-(3-methyl-2-oxo-2,3-dihydro-1,3-benzoxazol-6-yl)imidazo[1,2-c]pyrimidin-7-yl]benzonitrile]
  pIC50: 6.30 to 7.30

## C[C@H](O)CN1CCC[C@@H](COc2nc(-c3ccc(C#N)cc3)c(-c3ccc4c(c3)oc(=O)n4C)c3nccn23)C1 [Example 134, 4-[5-({(3R)-1-[(2S)-2-hydroxypropyl]piperidin-3-yl}methoxy)-8-(3-methyl-2-oxo-2,3-dihydro-1,3-benzoxazol-6-yl)imidazo[1,2-c]pyrimidin-7-yl]benzonitrile]
  pIC50: ≥ 7.30

## Cn1c(=O)oc2cc(-c3c(-c4ccc(C#N)cc4)nc(OC[C@@H]4CCCN(CC(C)(C)O)C4)n4ccnc34)ccc21 [Example 135, 4-[5-{[(3R)-1-(2-hydroxy-2-methylpropyl)piperidin-3-yl]methoxy}-8-(3-methyl-2-oxo-2,3-dihydro-1,3-benzoxazol-6-yl)imidazo[1,2-c]pyrimidin-7-yl]benzonitrile]
  pIC50: 6.30 to 7.30

## C[C@@H](O)CN1CCC[C@@H](COc2nc(-c3ccc(C#N)cc3)c(-c3cnc4c(cnn4C)c3)c3nccn23)C1 [Example 136, 4-[5-({(3R)-1-[(2R)-2-hydroxypropyl]piperidin-3-yl}methoxy)-8-(1-methyl-1H-pyrazolo[3,4-b]pyridin-5-yl)imidazo[1,2-c]pyrimidin-7-yl]benzonitrile]
  pIC50: 6.30 to 7.30

## C[C@H](O)CN1CCC[C@@H](COc2nc(-c3ccc(C#N)cc3)c(-c3cnc4c(cnn4C)c3)c3nccn23)C1 [Example 137, 4-[5-({(3R)-1-[(2S)-2-hydroxypropyl]piperidin-3-yl}methoxy)-8-(1-methyl-1H-pyrazolo[3,4-b]pyridin-5-yl)imidazo[1,2-c]pyrimidin-7-yl]benzonitrile]
  pIC50: ≥ 7.30

## Cn1ncc2cc(-c3c(-c4ccc(C#N)cc4)nc(OC[C@@H]4CCCN(CC(C)(C)O)C4)n4ccnc34)cnc21 [Example 138, 4-[5-{[(3R)-1-(2-hydroxy-2-methylpropyl)piperidin-3-yl]methoxy}-8-(1-methyl-1H-pyrazolo[3,4-b]pyridin-5-yl)imidazo[1,2-c]pyrimidin-7-yl]benzonitrile]
  pIC50: 6.30 to 7.30
